Consider four compounds from paper PMC4798942 (ACS chemical biology, 2015).

What all share (assay type): biochemical
The target in experiment [1] is T1, human CP4H1 (collagen prolyl 4-hydroxylase 1, alpha(I)2beta2 holoenzyme) (Homo sapiens, UniProt P13674). Description: dose-response inhibition of CP4H1 hydroxylation activity.
The next experiment deals with human PHD2 (Homo sapiens, UniProt Q9GZT9). The experiment in a line: inhibition of PHD2 activity in vitro.
Experiment [2] deals with T1, human CP4H1 (collagen prolyl 4-hydroxylase 1, alpha(I)2beta2 holoenzyme). Description: Lineweaver-Burk analysis of CP4H1 activity.
Experiment [3] shares this target. The experiment in a line: inhibition of CP4H1 activity in vitro. Particulars: 100 µM compound.
The mark [4] stands for this setting: Fe(II) and AKG dependent reaction.

As usually defined, the IC50 is the concentration that gives 50% inhibition. Usually Ki stands for the equilibrium dissociation constant of an inhibitor or competing ligand from its target. High values mean lower affinity, low ones higher affinity.

Like-named read-outs stand apart in the source and are kept apart here.

T1 sequence (P13674 18-534): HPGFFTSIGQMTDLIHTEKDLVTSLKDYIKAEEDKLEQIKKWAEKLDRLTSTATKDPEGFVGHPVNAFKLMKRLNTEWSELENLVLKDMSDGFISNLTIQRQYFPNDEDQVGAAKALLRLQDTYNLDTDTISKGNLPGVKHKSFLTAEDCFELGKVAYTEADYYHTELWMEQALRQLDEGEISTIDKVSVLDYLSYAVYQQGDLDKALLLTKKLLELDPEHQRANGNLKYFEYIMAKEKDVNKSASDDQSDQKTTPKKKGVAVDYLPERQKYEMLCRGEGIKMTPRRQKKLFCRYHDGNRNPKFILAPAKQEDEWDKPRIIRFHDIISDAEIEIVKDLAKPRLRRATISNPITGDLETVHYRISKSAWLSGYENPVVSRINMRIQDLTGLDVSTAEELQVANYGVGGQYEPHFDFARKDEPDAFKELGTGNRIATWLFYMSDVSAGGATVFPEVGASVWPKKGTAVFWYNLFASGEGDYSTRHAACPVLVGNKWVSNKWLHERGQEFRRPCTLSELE
T1 sequence (P07237 18-508 partner): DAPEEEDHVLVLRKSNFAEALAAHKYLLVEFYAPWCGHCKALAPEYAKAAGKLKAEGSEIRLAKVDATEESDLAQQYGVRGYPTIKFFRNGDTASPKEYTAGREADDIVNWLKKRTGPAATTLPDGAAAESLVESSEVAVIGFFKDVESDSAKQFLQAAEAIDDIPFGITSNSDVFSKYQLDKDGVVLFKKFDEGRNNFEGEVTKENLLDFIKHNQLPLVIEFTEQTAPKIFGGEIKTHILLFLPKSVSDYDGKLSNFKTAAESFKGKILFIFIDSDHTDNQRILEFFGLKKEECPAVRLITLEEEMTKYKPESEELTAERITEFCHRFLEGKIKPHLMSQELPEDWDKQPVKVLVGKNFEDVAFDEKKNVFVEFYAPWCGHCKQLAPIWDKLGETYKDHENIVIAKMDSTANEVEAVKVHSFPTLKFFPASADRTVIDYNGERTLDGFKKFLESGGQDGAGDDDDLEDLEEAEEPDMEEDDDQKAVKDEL
human PHD2, sequence (Q9GZT9 2-426): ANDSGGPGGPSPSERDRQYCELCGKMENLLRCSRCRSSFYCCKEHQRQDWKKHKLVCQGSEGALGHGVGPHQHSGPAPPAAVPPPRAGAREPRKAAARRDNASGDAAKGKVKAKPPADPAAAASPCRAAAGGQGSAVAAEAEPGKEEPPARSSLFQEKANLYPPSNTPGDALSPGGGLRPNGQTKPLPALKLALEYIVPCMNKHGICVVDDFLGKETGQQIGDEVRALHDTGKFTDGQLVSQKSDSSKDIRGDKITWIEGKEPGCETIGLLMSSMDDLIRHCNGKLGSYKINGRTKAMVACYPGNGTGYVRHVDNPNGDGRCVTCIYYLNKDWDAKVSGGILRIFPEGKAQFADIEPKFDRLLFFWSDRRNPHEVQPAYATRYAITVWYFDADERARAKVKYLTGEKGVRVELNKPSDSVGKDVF

With `O=C(O)c1ccc(-c2ncc(C(=O)O)o2)nc1` [pyoxDC], it took 33 ± 8 µM to reach half-maximal inhibition in experiment [1] (setting [4]) (IC50). As for `O=C(O)c1ccc(-c2ncc(C(=O)O)[nH]2)nc1` [pyimDC], in experiment [1] (setting [4]), the IC50 is 2.6 ± 0.1 µM.

Take `O=C(O)c1ccc(-c2ncc(C(=O)O)s2)nc1` [pythiDC, 2 (5-carboxythiazol-2-yl)pyridine-5-carboxylic acid]: the inhibition result against human PHD2 is “inhibit human PHD2 only weakly (Figure S4), with pythiDC displaying especially low potency”. Also, in experiment [2], the Ki is 0.39 ± 0.04 µM. This compound gave an IC50 in experiment [1] of 4 ± 0.2 µM.

Regarding `CCOC(=O)c1ccc(-c2ncc(C(=O)OCC)s2)nc1` [diethyl pythiDC], in experiment [3], the “inhibition at 100 μM” value was “No inhibition of catalysis by CP4H1 or PHD2 was observed in vitro with these diethyl esters”.
